Laboratory results reported in ChEMBL document CHEMBL5584231, “Rational design of a new short anticancer peptide with good potential for cancer treatment” (Eur J Med Chem, 2024).
Residues, ends and D or L forms follow the SMILES beside them.

How the values were obtained:
MCF7 = assay: Cytotoxicity against human MCF7 cells assessed as inhibition of cell growth incubated for 1 hr by MTT assay; type: functional, cell-based; conditions: MCF7, 1 h
[1] = Therapeutic index, ratio of HC10 for mouse RBC to IC50 for cytotoxicity against human MCF7 cells; type: toxicity, cell-based; conditions: mouse RBC and MCF7 cells, read-out: TI
[2] = Cytotoxicity against HK-2 cells assessed as inhibition of cell growth incubated for 1 hr by MTT assay; type: toxicity, cell-based; conditions: human
[3] = Therapeutic index, ratio of HC10 for mouse RBC to IC50 for cytotoxicity against human A549 cells; type: toxicity, cell-based; conditions: mouse RBC and A549 cells, read-out: TI
HeLa = assay: Cytotoxicity against human HeLa cells assessed as inhibition of cell growth incubated for 1 hr by MTT assay; type: functional, cell-based
[4] = Therapeutic index, ratio of HC10 for mouse RBC to IC50 for cytotoxicity against human HeLa cells; type: toxicity, cell-based; conditions: mouse RBC and HeLa cells, read-out: TI
[5] = Cytotoxicity against RG cells (unknown origin) assessed as inhibition of cell growth incubated for 1 hr by MTT assay; type: functional, cell-based
A549 = assay: Cytotoxicity against human A549 cells assessed as inhibition of cell growth incubated for 1 hr by MTT assay; type: functional, cell-based; conditions: A549, 1 h
[6] = Therapeutic index, ratio of HC10 for mouse RBC to IC50 for cytotoxicity against RG cells (unknown origin); type: toxicity, cell-based; conditions: mouse RBC and RG cells, read-out: TI

| Structure (SMILES) | IC50 (MCF7) [µM] | selectivity ratio [1] | IC50 at 1 h [2] [µM] | selectivity ratio [3] | IC50 (HeLa) [µM] | selectivity ratio [4] | IC50 [5] [µM] | IC50 (A549) [µM] | selectivity ratio [6] |
| --- | --- | --- | --- | --- | --- | --- | --- | --- | --- |
| CC(C)C[C@H](NC(=O)[C@H](CC(C)C)NC(=O)[C@H](CCCCN)NC(=O)[C@H](CCCCN)NC(=O)[C@H](CC(C)C)NC(=O)[C@H](CC(C)C)NC(=O)[C@H](CCCCN)NC(=O)[C@H](CCCCN)NC(=O)[C@H](CC(C)C)NC(=O)[C@H](CC(C)C)NC(=O)[C@H](CCCCN)NC(=O)[C@H](CCCCN)NC(=O)[C@H](CC(C)C)NC(=O)[C@@H](N)CCC(=O)O)C(N)=O (H-ELKKLLKKLLKKLL-NH2) | 39.9 | 0.647 | 50.8 | 1.75 | 16.3 | 1.58 | 22.5 | 14.7 | 1.15 |
| CC(C)C[C@H](NC(=O)[C@H](CC(C)C)NC(=O)[C@H](CCCCN)NC(=O)[C@H](CCCCN)NC(=O)[C@H](CC(C)C)NC(=O)[C@H](CC(C)C)NC(=O)[C@H](CCCCN)NC(=O)[C@H](CCCCN)NC(=O)[C@H](CC(C)C)NC(=O)[C@H](CC(C)C)NC(=O)[C@H](CCCCN)NC(=O)[C@@H](N)CCCCN)C(=O)N[C@@H](CCCCN)C(N)=O (H-KKLLKKLLKKLLK-NH2) | 108 | 4.61 | 63.9 | 9.03 | 20.8 | 24.1 | 93.3 | 55.4 | 5.36 |
| CC(C)C[C@H](NC(=O)[C@H](CC(C)C)NC(=O)[C@H](CCCCN)NC(=O)[C@H](CCCCN)NC(=O)[C@H](CC(C)C)NC(=O)[C@H](CC(C)C)NC(=O)[C@H](CCCCN)NC(=O)[C@H](CCCCN)NC(=O)[C@H](CC(C)C)NC(=O)[C@H](CC(C)C)NC(=O)[C@H](CCCCN)NC(=O)[C@H](CCCCN)NC(=O)[C@H](CC(C)C)NC(=O)[C@H](CC(C)C)NC(=O)[C@H](CCCCN)NC(=O)[C@@H](N)CCCCN)C(=O)N[C@@H](CCCCN)C(N)=O (H-KKLLKKLLKKLLKKLLK-NH2) | 9.06 | 1.34 | 8.47 | 1.67 | 4.63 | 2.62 | 10.9 | 7.23 | 1.11 |
| CC(C)C[C@H](NC(=O)[C@H](CCCCN)NC(=O)[C@H](CC(C)C)NC(=O)[C@H](CC(C)C)NC(=O)[C@H](CCCCN)NC(=O)[C@H](CCCCN)NC(=O)[C@H](CC(C)C)NC(=O)[C@H](CC(C)C)NC(=O)[C@H](CCCCN)NC(=O)[C@H](CCCCN)NC(=O)[C@H](CC(C)C)NC(=O)[C@H](CC(C)C)NC(=O)[C@H](CCCCN)NC(=O)[C@H](CCCCN)NC(=O)[C@H](CC(C)C)NC(=O)[C@H](CC(C)C)NC(=O)[C@H](CCCCN)NC(=O)[C@@H](N)CCCCN)C(N)=O (H-KKLLKKLLKKLLKKLLKL-NH2) | 5.88 | 1.05 | 15.1 | 1.11 | 3.45 | 1.8 | 9.04 | 5.61 | 0.686 |
| CC(C)C[C@H](NC(=O)[C@H](CCCCN)NC(=O)[C@H](CC(C)C)NC(=O)[C@H](CC(C)C)NC(=O)[C@H](CCCCN)NC(=O)[C@H](CCCCN)NC(=O)[C@H](CC(C)C)NC(=O)[C@H](CC(C)C)NC(=O)[C@H](CCCCN)NC(=O)[C@H](CCCCN)NC(=O)[C@H](CC(C)C)NC(=O)[C@H](CC(C)C)NC(=O)[C@H](CCCCN)NC(=O)[C@@H](N)CCCCN)C(N)=O (H-KKLLKKLLKKLLKL-NH2) | 12.5 | 6.5 | 8.91 | 9.31 | 7.85 | 10.3 | 12.1 | 8.71 | 6.72 |
| CC(C)C[C@H](NC(=O)[C@H](CC(C)C)NC(=O)[C@H](CCCCN)NC(=O)[C@H](CCCCN)NC(=O)[C@H](CC(C)C)NC(=O)[C@H](CC(C)C)NC(=O)[C@H](CCCCN)NC(=O)[C@H](CCCCN)NC(=O)[C@H](CC(C)C)NC(=O)[C@H](CC(C)C)NC(=O)[C@@H](N)CCCCN)C(=O)N[C@@H](CCCCN)C(N)=O (H-KLLKKLLKKLLK-NH2) | 89.7 | 4.66 | 82.6 | 3.19 | 22.2 | 18.9 | 47.2 | 131 | 8.86 |
| CC(C)C[C@H](NC(=O)[C@H](CC(C)C)NC(=O)[C@H](CCCCN)NC(=O)[C@H](CCCCN)NC(=O)[C@H](CC(C)C)NC(=O)[C@H](CC(C)C)NC(=O)[C@H](CCCCN)NC(=O)[C@H](CCCCN)NC(=O)[C@H](CC(C)C)NC(=O)[C@H](CC(C)C)NC(=O)[C@H](CCCCN)NC(=O)[C@H](CCCCN)NC(=O)[C@H](CC(C)C)NC(=O)[C@H](CC(C)C)NC(=O)[C@@H](N)CCCCN)C(=O)N[C@@H](CCCCN)C(N)=O (H-KLLKKLLKKLLKKLLK-NH2) | 7.46 | 1.22 | 7.36 | 2.31 | 3.94 | 2.31 | 6.79 | 3.93 | 1.34 |
| CC(C)C[C@H](NC(=O)[C@H](CCCCN)NC(=O)[C@H](CC(C)C)NC(=O)[C@H](CC(C)C)NC(=O)[C@H](CCCCN)NC(=O)[C@H](CCCCN)NC(=O)[C@H](CC(C)C)NC(=O)[C@H](CC(C)C)NC(=O)[C@H](CCCCN)NC(=O)[C@H](CCCCN)NC(=O)[C@H](CC(C)C)NC(=O)[C@H](CC(C)C)NC(=O)[C@H](CCCCN)NC(=O)[C@H](CCCCN)NC(=O)[C@H](CC(C)C)NC(=O)[C@H](CC(C)C)NC(=O)[C@@H](N)CCCCN)C(N)=O (H-KLLKKLLKKLLKKLLKL-NH2) | 6.19 | 0.517 | 5.35 | 0.787 | 2.68 | 1.2 | 7.88 | 4.06 | 0.406 |
| CC(C)C[C@H](NC(=O)[C@H](CCCCN)NC(=O)[C@H](CC(C)C)NC(=O)[C@H](CC(C)C)NC(=O)[C@H](CCCCN)NC(=O)[C@H](CCCCN)NC(=O)[C@H](CC(C)C)NC(=O)[C@H](CC(C)C)NC(=O)[C@H](CCCCN)NC(=O)[C@H](CCCCN)NC(=O)[C@H](CC(C)C)NC(=O)[C@H](CC(C)C)NC(=O)[C@@H](N)CCCCN)C(N)=O (H-KLLKKLLKKLLKL-NH2) | 10.5 | 5.27 | 9.65 | 6.09 | 8.14 | 6.79 | 11.1 | 9.08 | 4.98 |
| CC(C)C[C@H](NC(=O)[C@H](CC(C)C)NC(=O)[C@H](CCCCN)NC(=O)[C@H](CCCCN)NC(=O)[C@H](CC(C)C)NC(=O)[C@H](CC(C)C)NC(=O)[C@H](CCCCN)NC(=O)[C@H](CCCCN)NC(=O)[C@H](CC(C)C)NC(=O)[C@H](CC(C)C)NC(=O)[C@H](CCCCN)NC(=O)[C@H](CC(C)C)NC(=O)[C@H](CC(C)C)NC(=O)[C@@H](N)CCCCN)C(N)=O (H-KLLKLLKKLLKKLL-NH2) | 58.4 | 0.129 | 28.1 | 0.486 | 11.9 | 0.629 | 34.3 | 15.4 | 0.219 |
| CC(C)C[C@H](NC(=O)[C@H](CC(C)C)NC(=O)[C@H](CCCCN)NC(=O)[C@H](CCCCN)NC(=O)[C@H](CC(C)C)NC(=O)[C@H](CC(C)C)NC(=O)[C@H](CCCCN)NC(=O)[C@H](CCCCN)NC(=O)[C@H](CC(C)C)NC(=O)[C@H](CC(C)C)NC(=O)[C@H](CCCCN)NC(=O)[C@H](CCCCN)NC(=O)[C@H](CCC(=O)O)NC(=O)[C@@H](N)CC(C)C)C(N)=O (H-LEKKLLKKLLKKLL-NH2) | 51.2 | 2.33 | 59.2 | 2.42 | 25.8 | 4.62 | 46.4 | 49.4 | 2.58 |
| CC(C)C[C@H](NC(=O)[C@H](CC(C)C)NC(=O)[C@H](CCCCN)NC(=O)[C@H](CCCCN)NC(=O)[C@H](CC(C)C)NC(=O)[C@H](CC(C)C)NC(=O)[C@H](CCCCN)NC(=O)[C@H](CCCCN)NC(=O)[C@H](CC(C)C)NC(=O)[C@H](CC(C)C)NC(=O)[C@H](CCCCN)NC(=O)[C@H](CCC(=O)O)NC(=O)[C@H](CC(C)C)NC(=O)[C@@H](N)CC(C)C)C(N)=O (H-LLEKLLKKLLKKLL-NH2) | 10.5 | 0.595 | 11 | 0.767 | 7.05 | 0.883 | 11.1 | 8.11 | 0.563 |
| CC(C)C[C@H](NC(=O)[C@H](CC(C)C)NC(=O)[C@H](CCCCN)NC(=O)[C@H](CCCCN)NC(=O)[C@H](CC(C)C)NC(=O)[C@H](CC(C)C)NC(=O)[C@H](CCCCN)NC(=O)[C@H](CCCCN)NC(=O)[C@H](CC(C)C)NC(=O)[C@H](CC(C)C)NC(=O)[C@H](CCC(=O)O)NC(=O)[C@H](CCCCN)NC(=O)[C@H](CC(C)C)NC(=O)[C@@H](N)CC(C)C)C(N)=O (H-LLKELLKKLLKKLL-NH2) | 18.5 | 1.24 | 21.4 | 0.966 | 12.9 | 1.78 | 18.2 | 23.8 | 1.26 |
